Patent EP3636255A1 (priority 2018, dated 2020)
Like-named read-outs stand apart in the source and are kept apart here.

Experiments:
anthrax toxin = type: cell-based, human; conditions: RPE1 cells, 1 µM overnight
[1] = test system: Vesicular Stomatitis Virus (VSV); type: cell-based
[2] = test system: CerS3 cells lacking the indicated genes; assay: Yeast growth assay of CerS3 cells lacking genes identified as hypersensitive by SATAY; conditions: 2.5 µM; 48 h at 30°C
yeast cells = assay: Yeast growth assay (ten-fold serial dilution spotting) of WT yeast with empty vector or expressing mammalian ceramide synthases; conditions: 48 h at 30°C

Row | Structure (SMILES) | LF activity (anthrax toxin; 500 ng/ml PA83 and 50 ng/ml LF) | PA processing (PA83 to PA63, heptamer formation) (anthrax toxin; 500 ng/ml PA83 and 50 ng/ml LF) | MEK1(N) cleavage (anthrax toxin; control cleaved within 90 to 120 min) | cellular toxicity (RPE1 cells) | inhibition of viral infection, concentration dependence [1] | viral infection (GFP-positive cells) [1] | reduction of viral infectivity ([1]; 1 µM) | sensitivity of the mutants (colony size and density) [2] | toxicity (cell count by DAPI-based nuclei count) (HeLaMZ cells) | toxicity (cell number by DAPI nuclei count) (HeLaMZ cells; at 1µM) | sensitivity (colony size and density) (yeast cells; WT+CerS1, 5 to 20 µM) | sensitivity (colony size and density) (yeast cells; WT+CerS2, 5 to 20 µM) | sensitivity (colony size and density) (yeast cells; WT+CerS3, already at 5 µM) | sensitivity (colony size and density) (yeast cells; WT+CerS4, 5 to 20 µM) | sensitivity (colony size and density) (yeast cells; WT+CerS5, 10 µM) | sensitivity (colony size and density) (yeast cells; WT+CerS5, 20 µM) | sensitivity (colony size and density) (yeast cells; WT+CerS6, 10 µM) | sensitivity (colony size and density) (yeast cells; WT+CerS6, 20 µM) | sensitivity (colony size and density) (yeast cells; WT+EV (empty vector), 5 to 20 µM) | toxicity (cell number by DAPI nuclei count) (HeLaMZ cells; 0.2-2 µM)
1 | CCCCCCCCCCCCCCCC(O)C(C)N (centres unmarked) [Formula 1, 2-aminooctadecan-3-ol] | prevented | unaffected | stabilized | not toxic | Concentration dependent inhibition | reduced viral infection | substantial | slightly more sensitive | not toxic | starts to show some toxicity | insensitive | insensitive | highly sensitive | insensitive | mildly sensitive | highly sensitive | mildly sensitive | highly sensitive | insensitive | –
2 | C#CCCCCCCCCCCCCCC(O)C(C)N (centres unmarked) [Formula 2, 2-aminooctadec-17-yn-3-ol] | – | – | – | – | – | – | – | – | – | – | – | – | – | – | – | – | – | – | – | very little toxicity
